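Dose response: 5 concentrations. Exposure: 48 h. Format: 96-well plates. Endpoint: linear interpolation; highest concentration if not reached. Definition used: TGI = concentration required for complete inhibition of growth.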
Key:
Experiment in all cases: DTP human tumour cell line panel, 48 h
[1] = test system: PC-3 prostate
[2] = test system: NCI-H522 lung
[3] = test system: HS 578T breast
[4] = test system: SF-268 CNS
[5] = test system: UACC-257 melanoma
[6] = test system: M14 melanoma
[7] = test system: NCI-H226 lung
[8] = test system: MCF7 breast
[9] = test system: SW-620 colon
[10] = test system: HL-60(TB) leukemia
[11] = test system: SN12C renal
[12] = test system: HCT-15 colon
[13] = test system: HT29 colon
[14] = test system: A549 NSCLC
[15] = test system: CCRF-CEM leukemia
[16] = test system: OVCAR-8 ovarian
[17] = test system: A498 renal
[18] = test system: RPMI-8226 leukemia
[19] = test system: HCC-2998 colon
[20] = test system: MOLT-4 leukemia
[21] = test system: HCT-116 colon
[22] = test system: NCI/ADR-RES ovarian
[23] = test system: SF-539 CNS
[24] = test system: U251 CNS
[25] = test system: OVCAR-5 ovarian
[26] = test system: DU-145 prostate
[27] = test system: NCI-H23 lung
[28] = test system: CAKI-1 renal
[29] = test system: COLO 205 colon
[30] = test system: ACHN renal
[31] = test system: MALME-3M melanoma
[32] = test system: SK-MEL-28 melanoma
[33] = test system: UO-31 renal
[34] = test system: KM12 colon
[35] = test system: MDA-MB-435
[36] = test system: BT-549 breast
[37] = test system: SK-MEL-2 melanoma
[38] = test system: HOP-92 NSCLC
[39] = test system: EKVX NSCLC
[40] = test system: IGROV1 ovarian
[41] = test system: SNB-75 CNS
[42] = test system: NCI-H460 lung
[43] = test system: OVCAR-4 ovarian
[44] = test system: T-47D breast
[45] = test system: SK-MEL-5 melanoma
[46] = test system: OVCAR-3 ovarian
[47] = test system: K-562 leukemia
[48] = test system: SNB-19 CNS
[49] = test system: TK-10 renal
[50] = test system: MDA-MB-231 breast
[51] = test system: SF-295 CNS
[52] = test system: LOX IMVI melanoma
[53] = test system: UACC-62 melanoma
[54] = test system: 786-0 renal
[55] = test system: SK-OV-3 ovarian

Measured: TGI

Cc1cccc(C)c1NC(=O)/C(Cc1nc2ccc([N+](=O)[O-])cc2[nH]c1=O)=N\NC(N)=O
> 100 µM: all assays above

Reference: PubChem BioAssay (NCI)
